According to patent publication US8691865B2 (AbbVie Inc., priority 2008, dated 2014):

target: human Cav2.2 (Homo sapiens, UniProt Q00975); test: Assessment of calcium channel activity using FLIPR (Ca2+ influx in IMR32 cells); format: cell-based; details: not given
Method in brief: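 Human neuroblastoma IMR32 cells were seeded at 1−1.2×10^5 cells/well and cultured 48 h at 37 °C before FLIPR calcium influx measurement. Percent inhibition at each concentration was calculated against the no-inhibitor signal, and IC50 came from sigmoidal dose-response fits.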

Chain of human Cav2.2 (Q00975 whole entry): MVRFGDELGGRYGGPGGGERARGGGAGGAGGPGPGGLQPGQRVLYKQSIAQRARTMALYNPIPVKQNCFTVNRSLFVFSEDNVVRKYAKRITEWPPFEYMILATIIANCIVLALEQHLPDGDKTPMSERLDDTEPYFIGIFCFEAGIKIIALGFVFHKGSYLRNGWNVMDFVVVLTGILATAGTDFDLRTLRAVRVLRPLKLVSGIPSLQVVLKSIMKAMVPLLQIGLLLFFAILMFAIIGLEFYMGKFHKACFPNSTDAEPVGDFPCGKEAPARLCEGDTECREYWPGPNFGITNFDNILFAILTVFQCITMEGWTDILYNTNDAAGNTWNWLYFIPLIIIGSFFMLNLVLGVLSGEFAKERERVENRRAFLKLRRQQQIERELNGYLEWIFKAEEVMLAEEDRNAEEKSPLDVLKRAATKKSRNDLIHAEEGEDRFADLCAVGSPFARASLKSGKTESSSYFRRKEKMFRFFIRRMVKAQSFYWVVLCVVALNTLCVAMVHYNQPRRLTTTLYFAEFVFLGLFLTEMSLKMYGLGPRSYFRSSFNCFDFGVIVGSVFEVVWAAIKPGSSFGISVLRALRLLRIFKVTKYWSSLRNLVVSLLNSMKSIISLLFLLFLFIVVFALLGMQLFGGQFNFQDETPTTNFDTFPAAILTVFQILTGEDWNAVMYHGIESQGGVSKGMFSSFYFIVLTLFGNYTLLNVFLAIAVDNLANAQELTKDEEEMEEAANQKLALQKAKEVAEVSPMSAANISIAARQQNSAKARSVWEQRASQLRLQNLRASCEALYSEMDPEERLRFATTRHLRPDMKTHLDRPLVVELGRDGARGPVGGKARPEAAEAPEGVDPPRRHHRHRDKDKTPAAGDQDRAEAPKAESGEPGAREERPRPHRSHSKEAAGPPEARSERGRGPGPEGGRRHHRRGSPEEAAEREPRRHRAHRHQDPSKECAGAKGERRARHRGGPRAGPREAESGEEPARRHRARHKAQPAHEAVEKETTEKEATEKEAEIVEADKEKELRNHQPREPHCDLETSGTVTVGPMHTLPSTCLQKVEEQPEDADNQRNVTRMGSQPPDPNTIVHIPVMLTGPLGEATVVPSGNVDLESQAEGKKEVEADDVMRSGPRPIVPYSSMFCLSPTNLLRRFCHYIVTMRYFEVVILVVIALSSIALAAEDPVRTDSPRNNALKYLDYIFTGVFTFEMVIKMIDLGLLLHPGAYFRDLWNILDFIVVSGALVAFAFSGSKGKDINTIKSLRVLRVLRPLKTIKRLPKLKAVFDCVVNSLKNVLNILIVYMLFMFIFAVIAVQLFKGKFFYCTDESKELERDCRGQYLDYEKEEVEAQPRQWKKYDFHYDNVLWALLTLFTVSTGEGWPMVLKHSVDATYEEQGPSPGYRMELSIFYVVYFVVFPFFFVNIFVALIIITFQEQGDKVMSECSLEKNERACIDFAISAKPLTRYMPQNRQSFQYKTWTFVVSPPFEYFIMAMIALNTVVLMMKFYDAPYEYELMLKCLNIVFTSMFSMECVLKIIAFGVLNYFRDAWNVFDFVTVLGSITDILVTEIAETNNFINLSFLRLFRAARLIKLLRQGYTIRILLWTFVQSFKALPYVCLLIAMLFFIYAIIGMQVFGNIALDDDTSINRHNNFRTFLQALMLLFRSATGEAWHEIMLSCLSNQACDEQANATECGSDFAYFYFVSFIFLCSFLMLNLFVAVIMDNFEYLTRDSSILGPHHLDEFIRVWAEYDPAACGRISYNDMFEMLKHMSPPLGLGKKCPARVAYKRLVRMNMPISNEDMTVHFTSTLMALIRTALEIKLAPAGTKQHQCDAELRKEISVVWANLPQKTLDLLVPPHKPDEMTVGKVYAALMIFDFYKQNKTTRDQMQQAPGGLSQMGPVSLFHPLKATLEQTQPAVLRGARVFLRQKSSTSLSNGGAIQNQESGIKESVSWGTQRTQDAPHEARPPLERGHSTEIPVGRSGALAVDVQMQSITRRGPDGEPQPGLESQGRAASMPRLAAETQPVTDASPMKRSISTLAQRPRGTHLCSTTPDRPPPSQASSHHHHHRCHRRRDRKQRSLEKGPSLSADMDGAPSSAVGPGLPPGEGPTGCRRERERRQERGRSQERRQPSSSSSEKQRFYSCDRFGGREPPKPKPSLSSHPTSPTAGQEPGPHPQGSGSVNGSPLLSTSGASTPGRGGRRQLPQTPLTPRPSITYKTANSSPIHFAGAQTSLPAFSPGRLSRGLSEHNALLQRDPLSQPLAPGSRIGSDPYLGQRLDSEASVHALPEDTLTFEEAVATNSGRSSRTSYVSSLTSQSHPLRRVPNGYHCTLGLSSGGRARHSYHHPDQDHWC
Chain of human Cav2.2 (P54289 25-956 partner limits assumed): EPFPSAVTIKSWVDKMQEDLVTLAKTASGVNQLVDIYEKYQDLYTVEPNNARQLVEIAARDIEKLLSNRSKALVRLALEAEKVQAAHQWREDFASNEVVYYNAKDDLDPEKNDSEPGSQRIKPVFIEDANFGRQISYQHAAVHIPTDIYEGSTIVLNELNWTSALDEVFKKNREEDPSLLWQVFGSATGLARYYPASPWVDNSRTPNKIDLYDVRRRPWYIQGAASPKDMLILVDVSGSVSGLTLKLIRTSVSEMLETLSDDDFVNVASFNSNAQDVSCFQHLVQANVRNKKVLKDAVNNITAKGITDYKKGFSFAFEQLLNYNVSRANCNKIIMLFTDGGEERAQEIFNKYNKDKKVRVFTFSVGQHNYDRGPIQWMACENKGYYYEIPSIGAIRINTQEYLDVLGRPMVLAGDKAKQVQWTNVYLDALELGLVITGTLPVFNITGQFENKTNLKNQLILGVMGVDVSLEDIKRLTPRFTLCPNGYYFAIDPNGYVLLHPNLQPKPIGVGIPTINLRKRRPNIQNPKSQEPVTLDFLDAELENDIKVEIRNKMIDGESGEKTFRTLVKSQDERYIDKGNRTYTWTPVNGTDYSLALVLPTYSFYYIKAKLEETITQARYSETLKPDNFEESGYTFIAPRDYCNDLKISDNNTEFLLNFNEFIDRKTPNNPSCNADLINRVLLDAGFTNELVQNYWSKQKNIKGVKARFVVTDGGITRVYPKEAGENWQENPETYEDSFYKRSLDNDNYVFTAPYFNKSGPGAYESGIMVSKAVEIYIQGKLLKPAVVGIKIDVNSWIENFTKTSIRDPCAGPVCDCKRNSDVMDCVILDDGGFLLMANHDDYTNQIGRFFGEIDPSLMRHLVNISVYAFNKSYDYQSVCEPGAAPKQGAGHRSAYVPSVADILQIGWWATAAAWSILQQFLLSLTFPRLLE
Chain of human Cav2.2 (P54289 957-1103 partner limits assumed): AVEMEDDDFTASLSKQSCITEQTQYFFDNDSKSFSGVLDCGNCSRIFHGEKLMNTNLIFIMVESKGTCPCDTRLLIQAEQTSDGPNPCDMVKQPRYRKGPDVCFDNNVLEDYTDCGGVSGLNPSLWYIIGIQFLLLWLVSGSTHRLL
Chain of human Cav2.2 (P54284 whole entry partner): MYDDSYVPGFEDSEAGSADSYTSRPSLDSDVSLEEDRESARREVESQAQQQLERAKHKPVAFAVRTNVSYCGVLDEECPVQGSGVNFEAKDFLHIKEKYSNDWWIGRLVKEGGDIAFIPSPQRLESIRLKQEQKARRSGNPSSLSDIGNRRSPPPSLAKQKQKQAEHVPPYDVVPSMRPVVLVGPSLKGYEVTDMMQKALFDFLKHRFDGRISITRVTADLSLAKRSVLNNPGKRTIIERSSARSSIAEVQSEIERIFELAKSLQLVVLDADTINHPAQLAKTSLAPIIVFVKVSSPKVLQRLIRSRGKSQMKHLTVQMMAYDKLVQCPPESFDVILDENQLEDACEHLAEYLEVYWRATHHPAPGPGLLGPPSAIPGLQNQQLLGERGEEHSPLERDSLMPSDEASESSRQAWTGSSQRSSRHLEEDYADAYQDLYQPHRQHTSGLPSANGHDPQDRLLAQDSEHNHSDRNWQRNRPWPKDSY

IC50 [µM] | Structure (SMILES)
0.71 | FC(F)(F)c1cccc(N2C[C@H]3CC[C@H](NCc4nc5ccccc5[nH]4)[C@H]3C2)n1 [Example 683, (3aR,4S,6aS)-N-(1H-benzimidazol-2-ylmethyl)-2-[6-(trifluoromethyl)pyridin-2-yl]octahydrocyclopenta[c]pyrrol-4-amine]
> 30 | O=C(N[C@@H]1CC[C@H]2CN(Cc3ccccc3)C[C@H]21)[C@@H]1CCCCN1 [Example 350, (2S)-N-[(3aS,4R,6aR)-2-benzyloctahydrocyclopenta[c]pyrrol-4-yl]piperidine-2-carboxamide]
3.51 | FC(F)(F)c1cccc(N2C[C@H]3CC[C@H](NCc4nc(-c5ccc(Cl)cc5)c[nH]4)[C@H]3C2)n1 [Example 745, (3aR,4S,6aS)-N-{[4-(4-chlorophenyl)-1H-imidazol-2-yl]methyl}-2-[6-(trifluoromethyl)pyridin-2-yl]octahydrocyclopenta[c]pyrrol-4-amine]
15.6 | Cc1cccc(N2C[C@H]3CC[C@H](NC(=O)[C@@H]4C[C@@H](F)CN4)[C@H]3C2)c1 [Example 642, (4R)-4-fluoro-N-[(3aR,4S,6aS)-2-(3-methylphenyl)octahydrocyclopenta[c]pyrrol-4-yl]-L-prolinamide]

same assay, conditions: read-out: IC50 (μM) or percent inhibition (* indicates 3 minute incubation, otherwise 60 minute); IC50; 60 minute pre-incubation with compound; IMR32 cells, 80 mM KCl depolarization

IC50 [µM] | Structure (SMILES)
0.51 | CC(C)C[C@H](C(=O)N[C@@H]1CC[C@H]2CN(Cc3cccc(C(F)(F)F)c3)C[C@H]21)N(C)C(=O)OC(C)(C)C (relative stereo) [Example 150, N^2-(tert-butyloxycarbonyl)-N^2-methyl-N^1-{(3aS*,4R*,6aR*)-2-[3-(trifluoromethyl)benzyl]octahydrocyclopenta[c]pyrrol-4-yl}-D-leucinamide]
2.73 | CCC[C@H](NC)C(=O)N[C@H]1CC[C@@H]2CN(S(=O)(=O)Cc3ccc(C(F)(F)F)cc3)C[C@@H]21 [Example 549, N^2-methyl-N^1-((3aR,4S,6aS)-2-{[4-(trifluoromethyl)benzyl]sulfonyl}octahydrocyclopenta[c]pyrrol-4-yl)-L-norvalinamide]
1.69 | O=C(N[C@H]1CC[C@H]2CN(CCCc3ccccc3)C[C@H]21)C(C1CCCCC1)C1CCCCC1 [Example 69, 2,2-dicyclohexyl-N-[(3aS,4S,6aR)-2-(3-phenylpropyl)octahydrocyclopenta[c]pyrrol-4-yl]acetamide]

More lines, now with the values behind:

Structure (SMILES) | IC50 [µM]
CN[C@H](CC(C)C)C(=O)N[C@@H]1CC[C@H]2CN(Cc3cccc(C(F)(F)F)c3)C[C@H]21 (relative stereo) [Example 163, N^2-methyl-N^1-{(3aS*,4R*,6aR*)-2-[3-(trifluoromethyl)benzyl]octahydrocyclopenta[c]pyrrol-4-yl}-D-leucinamide] | 4.59
O=C(N[C@@H]1CC[C@H]2CN(CCCC(c3ccc(F)cc3)c3ccc(F)cc3)C[C@H]21)C(C1CCCCC1)C1CCCCC1 [Example 81, N-{(3aS,4R,6aR)-2-[4,4-bis(4-fluorophenyl)butyl]octahydrocyclopenta[c]pyrrol-4-yl}-2,2-dicyclohexylacetamide] | 1.13
O=C(CCCCC(c1ccc(F)cc1)c1ccc(F)cc1)N[C@H]1CC[C@H]2CN(Cc3cccc(C(F)(F)F)c3)C[C@H]21 (relative stereo) [Example 130, 6,6-bis(4-fluorophenyl)-N-{(3aS*,4S*,6aR*)-2-[3-(trifluoromethyl)benzyl]octahydrocyclopenta[c]pyrrol-4-yl}hexanamide] | 0.79
CC(C)C[C@@H](C(=O)N[C@H]1CC[C@H]2CN(Cc3ccccc3)C[C@H]21)N(C)C(=O)OC(C)(C)C [Example 239, tert-butyl(S)-1-((3aS,4S,6aR)-2-benzyloctahydrocyclopenta[c]pyrrol-4-ylamino)-4-methyl-1-oxopentan-2-yl(methyl)carbamate] | 3.32
O=C(CC(c1ccc(F)cc1)c1ccc(F)cc1)N[C@H]1CC[C@H]2CN(Cc3cccc(C(F)(F)F)c3)C[C@H]21 (relative stereo) [Example 133, 3,3-bis(4-fluorophenyl)-N-{(3aS*,4S*,6aR*)-2-[3-(trifluoromethyl)benzyl]octahydrocyclopenta[c]pyrrol-4-yl}propanamide] | 0.69
